Laboratory results: US20230190754A1, “Therapeutic combinations for the treatment of Progressive Fibrosing interstitial lung diseases” (Boehringer Ingelheim International GmbH, priority 2021, published 2023)
Marks after values point to notes of the source that are not given here.

System: IPF patients
Test: Phase II clinical trial in IPF patients: Treatment Emergent Adverse Events (safety/tolerability), up to 13 weeks
[1] = Non-AF-group, 18 mg b.i.d., listed as Compound of Formula III
[2] = Non-AF-group, 18 mg b.i.d., listed as active agent

[O-][S@+]1CCc2nc(N3CCC(c4ncc(Cl)cn4)CC3)nc(NC3(CO)CCC3)c21 [Comp. of form. III]
(5.2) %: Dyspepsia, % (Total, N = 97) | Flatulence, % (Total, N = 97) | Musculoskeletal and connective tissue disorders, % (Total, N = 97)
64.6%: Any AE, patients % [2]
5: AE: Investigations, patients n (Non-AF-group, 18 mg b.i.d.)
31: Any AE, patients n (Non-AF-group, 18 mg b.i.d.)
(10.4) %: AE: Investigations, patients % (Non-AF-group, 18 mg b.i.d.)
(14.6) %: AE: Infections and infestations, patients % (Non-AF-group, 18 mg b.i.d.)
(16.7) %: AE: Respiratory, thoracic and mediastinal disorders, patients % (Non-AF-group, 18 mg b.i.d.) | AE: Diarrhoea, patients % [1]
4: AE: Nervous system disorders, patients n (Non-AF-group, 18 mg b.i.d.)
(23.7) %: Diarrhoea, % (Total, N = 97)
7: AE: Infections and infestations, patients n (Non-AF-group, 18 mg b.i.d.)
(16.5) %: General Disorders and Administration Side conditions, % (Total, N = 97)
(32.0) %: Gastrointestinal disorders, % (Total, N = 97)
(14.4) %: Infections and infestations, % (Total, N = 97) | Respiratory, thoracic and mediastinal disorders, % (Total, N = 97)
1: AE: Decreased appetite, patients n (Non-AF-group, 18 mg b.i.d.) | AE: Dizziness, patients n (Non-AF-group, 18 mg b.i.d.) | AE: Metabolism and nutrition disorders, patients n (Non-AF-group, 18 mg b.i.d.) | AE: Oedema peripheral, patients n (Non-AF-group, 18 mg b.i.d.) | AE: Pyrexia, patients n (Non-AF-group, 18 mg b.i.d.) | AE: Rhinorrhoea, patients n (Non-AF-group, 18 mg b.i.d.) | AE: Vomiting, patients n (Non-AF-group, 18 mg b.i.d.) | Gastrointestinal disorders leading to discontinuation of trial treatment, patients n (Non-AF-group, 18 mg b.i.d.) | SAE: COPD, patients n (Non-AF-group, 18 mg b.i.d.) | SAE: Cardiac disorders, patients n (Non-AF-group, 18 mg b.i.d.) | SAE: Cardiac failure congestive, patients n (Non-AF-group, 18 mg b.i.d.) | SAE: Covid-19 pneumonia (fatal event), patients n (Non-AF-group, 18 mg b.i.d.) | SAE: Dyspnoea, patients n (Non-AF-group, 18 mg b.i.d.) | SAE: Infections and Infestations, patients n (Non-AF-group, 18 mg b.i.d.) | SAE: Lung neoplasm, patients n (Non-AF-group, 18 mg b.i.d.) | SAE: Neoplasms benign, malignant and unspecified, patients n (Non-AF-group, 18 mg b.i.d.) | SAE: Respiratory, thoracic and mediastinal disorders, patients n (Non-AF-group, 18 mg b.i.d.) | Vomiting leading to discontinuation of trial treatment, patients n (Non-AF-group, 18 mg b.i.d.)
2.1%: Gastrointestinal disorders leading to discontinuation of trial treatment, patients % [2]
(4.1) %: Asthenia, % (Total, N = 97) | Metabolism and nutrition disorders, % (Total, N = 97) | Nasopharyngitis, % (Total, N = 97)
16.7%: AE: Diarrhoea, patients % (Non-AF-group, 18 mg b.i.d.) | AE: Diarrhoea, patients % [2]
(2.1) %: AE: Decreased appetite, patients % (Non-AF-group, 18 mg b.i.d.) | AE: Dizziness, patients % (Non-AF-group, 18 mg b.i.d.) | AE: Metabolism and nutrition disorders, patients % (Non-AF-group, 18 mg b.i.d.) | AE: Oedema peripheral, patients % (Non-AF-group, 18 mg b.i.d.) | AE: Pyrexia, patients % (Non-AF-group, 18 mg b.i.d.) | AE: Rhinorrhoea, patients % (Non-AF-group, 18 mg b.i.d.) | AE: Vomiting, patients % (Non-AF-group, 18 mg b.i.d.) | SAE: COPD, patients % (Non-AF-group, 18 mg b.i.d.) | SAE: Cardiac disorders, patients % (Non-AF-group, 18 mg b.i.d.) | SAE: Cardiac failure congestive, patients % (Non-AF-group, 18 mg b.i.d.) | SAE: Dyspnoea, patients % (Non-AF-group, 18 mg b.i.d.) | SAE: Infections and Infestations, patients % (Non-AF-group, 18 mg b.i.d.) | SAE: Lung neoplasm, patients % (Non-AF-group, 18 mg b.i.d.) | SAE: Neoplasms benign, malignant and unspecified, patients % (Non-AF-group, 18 mg b.i.d.) | SAE: Respiratory, thoracic and mediastinal disorders, patients % (Non-AF-group, 18 mg b.i.d.) | Vomiting leading to discontinuation of trial treatment, patients % (Non-AF-group, 18 mg b.i.d.) | Gastrointestinal disorders leading to discontinuation of trial treatment, patients % [1] | Abdominal Pain, % (Total, N = 97) | Arthralgia, % (Total, N = 97) | Bronchitis, % (Total, N = 97) | Condition aggravated, % (Total, N = 97) | Dizziness, % (Total, N = 97) | Oedema peripheral, % (Total, N = 97) | Pyrexia, % (Total, N = 97) | Rhinorrhoea, % (Total, N = 97)
(6.3) %: AE: Dyspepsia, patients % (Non-AF-group, 18 mg b.i.d.) | AE: Dyspnoea, patients % (Non-AF-group, 18 mg b.i.d.) | AE: Flatulence, patients % (Non-AF-group, 18 mg b.i.d.) | AE: Headache, patients % (Non-AF-group, 18 mg b.i.d.) | AEs leading to discontinuation of trial drug, patients % (Non-AF-group, 18 mg b.i.d.) | Serious AEs (patients with ≥1 SAE), patients % (Non-AF-group, 18 mg b.i.d.)
(2.1)* %: SAE: Covid-19 pneumonia (fatal event), patients % (Non-AF-group, 18 mg b.i.d.)
(3.1) %: Constipation, % (Total, N = 97) | Decreased appetite, % (Total, N = 97) | Dyspnoea, % (Total, N = 97) | Fatigue, % (Total, N = 97) | Nausea, % (Total, N = 97) | Vomiting, % (Total, N = 97) | Weight decreased, % (Total, N = 97)
3: AE: Dyspepsia, patients n (Non-AF-group, 18 mg b.i.d.) | AE: Dyspnoea, patients n (Non-AF-group, 18 mg b.i.d.) | AE: Flatulence, patients n (Non-AF-group, 18 mg b.i.d.) | AE: Headache, patients n (Non-AF-group, 18 mg b.i.d.) | AEs leading to discontinuation of trial drug, patients n (Non-AF-group, 18 mg b.i.d.) | Serious AEs (patients with ≥1 SAE), patients n (Non-AF-group, 18 mg b.i.d.)
(6.2) %: Headache, % (Total, N = 97)
(7.2) %: Cough, % (Total, N = 97)
(15.5) %: Investigations, % (Total, N = 97)
(18.8) %: AE: General disorders and administration site conditions, patients % (Non-AF-group, 18 mg b.i.d.)
8: AE: Diarrhoea, patients n (Non-AF-group, 18 mg b.i.d.) | AE: Respiratory, thoracic and mediastinal disorders, patients n (Non-AF-group, 18 mg b.i.d.)
(64.6) %: Any AE, patients % [1]
9: AE: General disorders and administration site conditions, patients n (Non-AF-group, 18 mg b.i.d.)
(27.1) %: AE: Gastrointestinal disorders, patients % (Non-AF-group, 18 mg b.i.d.)
(4.2) %: AE: Fatigue, patients % (Non-AF-group, 18 mg b.i.d.) | AE: Musculoskeletal and connective tissue disorders, patients % (Non-AF-group, 18 mg b.i.d.) | AE: Nausea, patients % (Non-AF-group, 18 mg b.i.d.) | AE: Weight decreased, patients % (Non-AF-group, 18 mg b.i.d.) | Severe AEs, patients % (Non-AF-group, 18 mg b.i.d.)
2: AE: Fatigue, patients n (Non-AF-group, 18 mg b.i.d.) | AE: Musculoskeletal and connective tissue disorders, patients n (Non-AF-group, 18 mg b.i.d.) | AE: Nausea, patients n (Non-AF-group, 18 mg b.i.d.) | AE: Weight decreased, patients n (Non-AF-group, 18 mg b.i.d.) | Severe AEs, patients n (Non-AF-group, 18 mg b.i.d.)
13: AE: Gastrointestinal disorders, patients n (Non-AF-group, 18 mg b.i.d.)
(13.4) %: Nervous system disorders, % (Total, N = 97)
(8.3) %: AE: Nervous system disorders, patients % (Non-AF-group, 18 mg b.i.d.)
